Data published in patent US20050282818A1, “Ubiquitin ligase inhibitors” (Rigel Pharmaceuticals, Inc., priority 2004, published 2005).

Tests used:
UACC-257 cells = experiment: Cell proliferation PAD assay, UACC-257; assay type: cell-based; settings: Homo sapiens, UACC257 cells, 6pt, 48 hours
Method: (§1) Cell lines used are available from American Type Culture Collection (ATCC), for example, cell cultures containing A549 (ATCC# CCL-185), HeLa (ATCC# CCL-2), HCT116 ATTC# CCL-247), and H1299 (ATCC# CRL-5803) cells were maintained in T175 flasks following the ATCC recommended media and handling procedures. […] A 20,000 cells/ml solution was made for plating. Cells were plated in black Packard 96 well plates by placing 100 μl per well (2,000 cells per well). […] The definitions of the cell types used are as follows: A549 is lung carcinoma; HI 299 is non-small cell lung carcinoma; HI 155 is non-small cell lung carcinoma; AsPC-1 is pancreatic adenocarcinoma; Caov-3 is ovarian adenocarcinoma; COLO 205 is colorectal adenocarcinoma; DLD-1 colorectal adenocarcinoma; HCT116 is colorectal carcinoma; DU 145 is prostate carcinoma; ES-2 is ovarian clear cell carcinoma; H460 is large cell lung carcinoma; HELA is cervical adenocarcinoma; MIA PaCa-2 is pancreatice carcinoma; OVCAR-3 is ovarian adenocarcinoma; OVCAR8 is ovarian carcinoma; PC3 is prostate adenocarcinoma; SK-OV-3 is ovarian adenocarcinoma; SU86.86 is pancreatic carcinoma; TOV-21G is avarian clear cell carcinoma; U2OS is bone osteosarcoma; is ASPC-I is pancreatic adenocarcinoma; BXPC-3 is pabcreatic adenocarcinoma; HL60 is promyeloblast promyelocytic leukemia; K562 is bone marrow chronic myelogenous leukemia; L1210 is mouse lymphocytic leukemia; MOLT3 is T lymphoblast acute lymphoblastic leukemia; MOLT4 is T lymphoblast acute lymphoblastic leukemia; SW620 is colorectal adenocarcinoma; THP-1 is monocyte acute monocytic leukemia; U937 is histiocytic lymphoma; and UACC-257 is melanoma.
(§2) Compounds and additional media were added 24 hours after cell plating. […] All compound testing was done in duplicate using 6.3 fold dilutions starting with 10 mM. […] Taxol and at least one additional control were run on all plates. Three microliters of the compound master plate were added to deep well blocks containing 750 μl of RPMI media. One hundred microliters were transferred from the compound/media deep well blocks to the plated cells resulting in a 500 fold dilution of the compounds. Cells were grown at 37° C., 5% CO2 for 48 hours.
(§3) Cells to be analyzed by photography were fixed and stained. One hundred microliters of media were removed and 100 μl of 9.3% formamide was added to each well. Plates were left on the benchtop for 45 minutes. A staining solution containing 1.55 μl of 1 mg/ml DAPI added to 18.75 ml PBS was warmed for 15 minutes at 37° C. The cells were aspirated prior to washing with 100 μl of PBS. Seventy microliters of PBS were aspirated and 170 μl of the DAPI solution were added to each well of fixed cells. Plates were left at room temperature for one hour then aspirated and washed twice with 100 μl of PBS. The stained cells were left at 4° C. for a minimum of 16 hours before photographic analysis with Array Scan II (Cellomics). Analysis of the photographic images to determine numbers of live cells (proliferation), apoptotic cells and dead cells, were according to the methods described in U.S. Utility patent application Ser. No. 10/652,440, which incorporated herein in its entirety.

A549 cells = experiment: Cell proliferation PAD assay, A549; assay type: cell-based; settings: Homo sapiens, 3pt, 48 hours, read-out: A549 3pt
In short: (§4)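 Plate 2,000 cells per well, then add compound after 24 h as duplicate 6.3-fold dilutions, with 10 mM master stock diluted 500-fold on transfer. Grow 48 h at 37 °C in 5% CO2, fix with formamide, stain nuclei with DAPI, and count cells by imaging.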

OVCAR8 cells = experiment: Cell proliferation PAD assay, OVCAR8; assay type: cell-based; settings: Homo sapiens, OVCAR-8, 6pt, 48 hours
Method: as §1, §2, §3

H1299 cells = experiment: Cell proliferation PAD assay, H1299; assay type: cell-based; settings: Homo sapiens, NCI-H1299, 3pt, 48 hours, read-out: H1299 3pt
In short: as §4

ROC1/CUL1 = target: T1, ROC1/CUL1 (Homo sapiens, UniProt P62877+Q13616); experiment: ROC1/CUL1 ubiquitin ligase assay (SCF assay); assay type: biochemical
T1 construct: made in house
T1 sequence (P62877 whole entry): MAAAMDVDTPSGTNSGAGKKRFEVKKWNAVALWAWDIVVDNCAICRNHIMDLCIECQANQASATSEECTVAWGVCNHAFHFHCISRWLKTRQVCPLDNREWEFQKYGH
T1 sequence (Q13616 whole entry): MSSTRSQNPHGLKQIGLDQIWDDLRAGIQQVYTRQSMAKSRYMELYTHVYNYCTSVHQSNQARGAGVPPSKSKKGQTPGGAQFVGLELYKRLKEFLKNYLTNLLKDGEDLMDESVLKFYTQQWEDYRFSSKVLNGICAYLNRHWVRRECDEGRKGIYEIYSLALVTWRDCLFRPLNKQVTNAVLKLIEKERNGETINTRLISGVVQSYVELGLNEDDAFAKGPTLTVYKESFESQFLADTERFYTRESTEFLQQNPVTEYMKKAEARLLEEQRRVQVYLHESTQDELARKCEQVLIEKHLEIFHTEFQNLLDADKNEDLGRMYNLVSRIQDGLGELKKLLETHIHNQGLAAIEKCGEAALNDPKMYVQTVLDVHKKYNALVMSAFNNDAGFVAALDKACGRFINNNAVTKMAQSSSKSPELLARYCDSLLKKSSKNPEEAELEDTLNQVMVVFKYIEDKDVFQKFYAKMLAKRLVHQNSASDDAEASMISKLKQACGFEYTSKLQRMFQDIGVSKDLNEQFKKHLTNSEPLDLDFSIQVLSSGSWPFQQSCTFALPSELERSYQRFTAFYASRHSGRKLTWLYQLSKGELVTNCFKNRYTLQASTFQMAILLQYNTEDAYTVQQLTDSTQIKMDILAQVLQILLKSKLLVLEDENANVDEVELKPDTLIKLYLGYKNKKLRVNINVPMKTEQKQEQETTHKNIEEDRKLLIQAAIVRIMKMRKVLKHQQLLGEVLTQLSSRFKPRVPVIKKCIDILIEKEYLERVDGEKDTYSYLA
Method: Inhibition of ubiquitin ligase activity of E1+E2+E3 was measured using the protocol as described in WO 01/75145 with E3 as the ROC1/CUL1, ROC1/CUL2, or ROC2/CUL5 complex.
The wells of nickel-substrate 96-well plates (Pierce Chemical) are blocked with 100 μl of 1 casein/phosphate buffered saline (PBS) for 1 hour at room temperature, then washed with 200 μl of PBST (0.1% Tween-20 in PBS) 3 times. To each well is added the following Flag-ubiquitin (see above) reaction solution: 62.5 mM Tris pH 7.5, 6.25 mm MgCl2, 0.75 mM DTT, 2.5 mM ATP, 2.5 mM NaF1, 2.5 nM Okadaic acid, 100 ng Flag-ubiquitin (made as described above).
The buffer solution is brought to a final volume of 80 μl with Milipore-filtered water, followed by the addition of 10 μl DMSO.
To the above solution is then added 10 μl of ubiquitination enzymes in 20 mM Tris buffer, pH 7.5, and 5% glycerol. E2-Ubch5c and E3-His ROC1/Cul1, ROC1/CUL2, and ROC2/CUL5 are made as described in WO 01/75145. E1 is obtained commercially (Affiniti Research Products, Exeter, U. K.). The following amounts of each enzyme are used for these assays: 5 ng/well of E1; […] E2; and 100 ng/well His-E3. Varying amounts of compounds according to the invention are added and the reaction allowed to proceed at room temperature for 1 hour.
Following the ubiquitination reaction, the wells are washed with 200 μl of PBST 3 times. For measurement of the enzyme-bound ubiquitin, 100 gel of Mouse anti-Flag (1:10,000) and anti-Mouse Ig-HRP (1:15, 000) in PBST are added to each well and allowed to incubate at room temperature for 1 hour. The wells are then washed with 200 μl of PBST 3 times, followed by the addition of 100 μl of luminol substrate (1/5 dilution). Luminescence for each well is then measured using a fluorimeter.
Table 2 below illustrates the inhibitory activity of the compounds of the invention determined by the TRAF6/Uev1A/Ubc13 assay as well as in the ICAM, APC and the ROC1/CUL1 Ubiquitin Ligase Assay (SCF Assay). The IC50 values were determined using a various concentrations of the compounds.

TRAF6/Uev1A/Ubc13 = target: T2, TRAF6/Uev1A/Ubc13 (Homo sapiens, UniProt Q9Y4K3); experiment: TRAF6/Uev1A/Ubc13 plate-based ubiquitin ligase assay; assay type: biochemical
T2 sequence (Q9Y4K3 1-522): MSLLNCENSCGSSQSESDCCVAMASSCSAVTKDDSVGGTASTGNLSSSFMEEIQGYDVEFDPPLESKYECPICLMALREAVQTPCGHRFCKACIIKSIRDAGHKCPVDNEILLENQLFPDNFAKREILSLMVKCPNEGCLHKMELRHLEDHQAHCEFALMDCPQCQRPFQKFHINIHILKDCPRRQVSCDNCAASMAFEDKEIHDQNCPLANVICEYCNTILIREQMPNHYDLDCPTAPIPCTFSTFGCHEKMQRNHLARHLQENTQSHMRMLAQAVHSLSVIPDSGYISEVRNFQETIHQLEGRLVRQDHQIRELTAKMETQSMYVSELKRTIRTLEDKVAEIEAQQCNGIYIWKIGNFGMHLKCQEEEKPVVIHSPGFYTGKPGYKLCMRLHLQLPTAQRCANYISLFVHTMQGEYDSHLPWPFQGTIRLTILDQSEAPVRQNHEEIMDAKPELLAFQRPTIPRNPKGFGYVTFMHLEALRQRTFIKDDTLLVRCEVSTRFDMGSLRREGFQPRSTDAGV
In short: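 Ligase activity was read as luminescence from anti-Flag/HRP detection of Flag-ubiquitin bound to casein-blocked Ni-plates alongside His-ubiquitin after a 1 h room-temperature reaction. Buffer: 62.5 mM Tris pH 7.5, 6.25 mM MgCl2, 1.0 mM DTT, 2 μM ATP; E1, Uev1a/Ubc13 and TRAF6 added last to start. IC50s derived across compound concentrations.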

APC11/APC2 = APC11/APC2 (Homo sapiens, UniProt Q9NYG5+Q9UJX6); experiment: APC-11/APC-2 ligase assay (APC auto ubiquitination); assay type: biochemical; settings: APC assay
APC11/APC2, sequence (Q9NYG5 whole entry): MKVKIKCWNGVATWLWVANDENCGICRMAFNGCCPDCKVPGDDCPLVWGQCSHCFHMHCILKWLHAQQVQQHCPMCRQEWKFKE
APC11/APC2, sequence (Q9UJX6 whole entry): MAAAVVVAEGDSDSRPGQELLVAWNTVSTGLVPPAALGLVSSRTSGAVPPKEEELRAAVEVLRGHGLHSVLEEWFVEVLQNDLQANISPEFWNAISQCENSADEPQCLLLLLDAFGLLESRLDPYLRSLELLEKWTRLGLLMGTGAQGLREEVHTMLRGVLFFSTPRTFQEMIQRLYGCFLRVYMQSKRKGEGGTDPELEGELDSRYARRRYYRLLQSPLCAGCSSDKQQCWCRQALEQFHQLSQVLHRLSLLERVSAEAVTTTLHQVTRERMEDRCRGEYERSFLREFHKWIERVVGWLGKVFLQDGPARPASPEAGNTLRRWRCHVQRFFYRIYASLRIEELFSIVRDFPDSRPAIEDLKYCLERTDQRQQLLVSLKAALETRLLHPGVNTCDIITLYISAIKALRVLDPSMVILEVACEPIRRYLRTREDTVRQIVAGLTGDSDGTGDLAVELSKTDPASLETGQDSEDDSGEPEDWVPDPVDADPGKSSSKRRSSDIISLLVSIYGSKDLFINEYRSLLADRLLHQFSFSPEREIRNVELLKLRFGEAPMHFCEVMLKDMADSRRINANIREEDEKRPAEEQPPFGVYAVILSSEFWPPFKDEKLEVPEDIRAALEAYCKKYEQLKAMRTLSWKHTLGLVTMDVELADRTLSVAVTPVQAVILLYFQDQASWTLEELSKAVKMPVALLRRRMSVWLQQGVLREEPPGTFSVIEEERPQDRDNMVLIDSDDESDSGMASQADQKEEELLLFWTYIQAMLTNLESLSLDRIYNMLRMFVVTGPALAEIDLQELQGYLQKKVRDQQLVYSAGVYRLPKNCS
In short: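 His-tagged APC was captured on nickel plates with human E1 (5 ng/well), UbcH5c (20 ng/well), APC (100 ng/well) and Flag-ubiquitin (100 ng/well) in a Tris pH 7.6 reaction buffer containing 2.5 mM ATP, for 1 hour at room temperature. Read-out was anti-Flag/HRP chemiluminescence. IC50 was set against a DMSO control, typically from 6 or 8 concentrations.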

[1] = tested on: ICAM-1 expression in A549 cells; experiment: ICAM assay (IL-1 induced ICAM-1/CD54 expression in A549 cells); assay type: cell-based, human; settings: Homo sapiens, A549, ICAM assay
In short: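 A549 cells, 10,000/well, preincubated with compound 1 h at 37° C, then stimulated with IL-1 (4 μl of 25 ng/ml added) for 4 h. Surface ICAM-1 detected by anti-CD54 plus anti-mouse IgG staining for 1 h, luminescent read-out after PBS washes.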

SMILES | IC50 (UACC-257 cells) [µM] | IC50 (A549 cells) [µM] | IC50 (OVCAR8 cells) [µM] | IC50 (H1299 cells) [µM] | IC50 (ROC1/CUL1) [µM] | IC50 (TRAF6/Uev1A/Ubc13) [µM] | IC50 (APC11/APC2) [µM] | IC50 [1] [µM]
O=S(=O)(Nc1ccncc1)c1ccc2nonc2c1 [compound 26, N-pyridin-4-yl-2,1,3-benzoxadiazole-5-sulfonamide] | ≥ 20 | ≥ 20 | ≥ 20 | ≥ 20 |  |  |  | 
CC1CC(C)CN(c2ccc(S(=O)(=O)N3CC(C)CC(C)C3)c3nonc23)C1 (centres unmarked) [compound 193, 4-(3,5-dimethylpiperidin-1-yl)-7-[(3,5-dimethylpiperidin-1-yl)sulfonyl]-2,1,3-benzoxadiazole] |  |  |  |  | 1 to 20 | 1 to 20 | 1 to 20 | 
Cc1ccc(N2CCN(S(=O)(=O)c3c(N4CCN(c5cccc(C)n5)CC4)ccc4nonc34)CC2)nc1 [compound 203, 5-[4-(6-methylpyridin-2-yl)piperazin-1-yl]-4-{[4-(5-methylpyridin-2-yl)piperazin-1-yl]sulfonyl}-2,1,3-benzoxadiazole] |  |  |  |  | ≥ 20 | 1 to 20 |  | ≥ 20
COC(=O)c1ccc(NS(=O)(=O)c2c(Sc3cccc4cccnc34)ccc3nonc23)cc1 [compound 215, methyl 4-({[5-(quinolin-8-ylthio)-2,1,3-benzoxadiazol-4-yl]sulfonyl}amino)benzoate] |  |  |  |  | ≥ 20 | 1 to 20 |  | ≥ 20
O=[N+]([O-])c1ccc(Nc2ccc3[nH]ncc3c2)c2nonc12 [compound 222, N-1H-indazol-5-yl-7-nitro-2,1,3-benzoxadiazol-4-amine] |  | ≥ 20 |  | 1 to 20 | ≥ 20 | 1 to 20 |  | 
O=S(=O)(c1ccc(Sc2ccc(O)cc2)c2nonc12)N1CCC(O)(c2ccc(Cl)cc2)CC1 [compound 228, 4-(4-chlorophenyl)-1-({7-[(4-hydroxyphenyl)thio]-2,1,3-benzoxadiazol-4-yl}sulfonyl)piperidin-4-ol] |  | ≥ 20 |  | ≥ 20 | ≥ 20 | < 1 |  | 
O=[N+]([O-])c1ccc(Sc2ccc3ccccc3n2)c2nonc12 [compound 238, 2-[(7-nitro-2,1,3-benzoxadiazol-4-yl)thio]quinoline] |  |  |  |  | ≥ 20 | 1 to 20 |  | ≥ 20
O=S(=O)(c1cccc2nsnc12)N1CCC2(CC1)OCc1ccccc12 [compound 257, 1′-(2,1,3-benzothiadiazol-4-ylsulfonyl)-3H-spiro[2-benzofiiran-1,4′-piperidine]] |  | ≥ 20 |  | ≥ 20 | ≥ 20 | ≥ 20 |  | 
CN1CCN(S(=O)(=O)c2ccc(Sc3ccc4ccccc4n3)c3nonc23)CC1 [compound 268, 2-({7-[(4-methylpiperazin-1-yl)sulfonyl]-2,1,3-benzoxadiazol-4-yl}thio)quinoline] |  |  |  |  | ≥ 20 | ≥ 20 |  | ≥ 20
COc1ccc(Cl)cc1NS(=O)(=O)c1ccc(Cl)c2nonc12 [compound 269, 7-chloro-N-(5-chloro-2-methoxyphenyl)-2,1,3-benzoxadiazole-4-sulfonamide] |  |  |  |  | ≥ 20 | 1 to 20 |  | ≥ 20
O=[N+]([O-])c1ccc(N2CCC3(CC2)OCc2ccccc23)c2nonc12 [compound 284, 1′-(7-nitro-2,1,3-benzoxadiazol-4-yl)-3H-spiro[2-benzofuran-1,4′-piperidine]] |  | ≥ 20 |  | ≥ 20 | ≥ 20 | 1 to 20 |  | 
O=C(Nc1cccc2nonc12)C1CN(c2ncccc2Cl)C1 [compound 486, N-(2,1,3-benzoxadiazol-4-yl)-1-(3-chloropyridin-2-yl) azetidine-3-carboxamide] |  |  |  |  | 1 to 20 | 1 to 20 | 1 to 20 | 
